In the CheMixHub ionic liquid set:

Test: xn = mol fraction of the nth substance listed
Settings: 308.15 K, 101 kPa

CCCCCCCCCCCCCCCC[n+]1ccccc1.[Cl-] + NCC(=O)O + O
Settings	electrical conductivity [S/m]
x2 = 0, x1 = 5.4e-07	0.000222
x2 = 0, x1 = 9e-07	0.00029
x2 = 0, x1 = 1.62e-06	0.0004
x2 = 0, x1 = 2.34e-06	0.000465
x2 = 0, x1 = 2.88e-06	0.000581
x2 = 0, x1 = 3.78e-06	0.000705
x2 = 0, x1 = 4.5e-06	0.000794
x2 = 0, x1 = 5.59e-06	0.000937
x2 = 0, x1 = 6.85e-06	0.00106
x2 = 0, x1 = 7.93e-06	0.001222
x2 = 0, x1 = 9.01e-06	0.001438
x2 = 0, x1 = 1.009e-05	0.00159
x2 = 0, x1 = 1.117e-05	0.001701
x2 = 0, x1 = 1.442e-05	0.00209
x2 = 0, x1 = 1.55e-05	0.00219
x2 = 0, x1 = 1.766e-05	0.00237
x2 = 0, x1 = 1.982e-05	0.00248
x2 = 0, x1 = 2.18e-05	0.00259
x2 = 0, x1 = 2.397e-05	0.00264
x2 = 0, x1 = 2.595e-05	0.00278
x2 = 0, x1 = 2.991e-05	0.00297
x2 = 0, x1 = 3.406e-05	0.00314
x2 = 0, x1 = 3.784e-05	0.00328
x2 = 0, x1 = 4.162e-05	0.00342
x2 = 0, x1 = 4.541e-05	0.00356
x2 = 0, x1 = 4.919e-05	0.00369
x2 = 0, x1 = 5.099e-05	0.00375
x2 = 0, x1 = 5.982e-05	0.00403
x2 = 0, x1 = 6.829e-05	0.00432
x2 = 0, x1 = 7.64e-05	0.00454
x2 = 0, x1 = 8.415e-05	0.00477
x2 = 0, x1 = 9.171e-05	0.00497
x2 = 0, x1 = 9.892e-05	0.00516
x2 = 0, x1 = 0.0001058	0.00533
x2 = 0, x1 = 0.0001124	0.0055
x2 = 0, x1 = 0.0001189	0.00565
x2 = 2.018e-05, x1 = 5.4e-07	0.0001
x2 = 2.018e-05, x1 = 9e-07	0.000245
x2 = 2.018e-05, x1 = 1.62e-06	0.000348
x2 = 2.018e-05, x1 = 2.34e-06	0.000456
x2 = 2.018e-05, x1 = 2.88e-06	0.000621
x2 = 2.018e-05, x1 = 3.78e-06	0.000716
x2 = 2.018e-05, x1 = 4.51e-06	0.000822
x2 = 2.018e-05, x1 = 5.59e-06	0.000964
x2 = 2.018e-05, x1 = 6.85e-06	0.00108
x2 = 2.018e-05, x1 = 7.93e-06	0.001203
x2 = 2.018e-05, x1 = 9.01e-06	0.001314
x2 = 2.018e-05, x1 = 1.009e-05	0.001427
x2 = 2.018e-05, x1 = 1.117e-05	0.001546
x2 = 2.018e-05, x1 = 1.334e-05	0.001813
x2 = 2.018e-05, x1 = 1.55e-05	0.00205
x2 = 2.018e-05, x1 = 1.766e-05	0.00226
x2 = 2.018e-05, x1 = 1.982e-05	0.0024
x2 = 2.018e-05, x1 = 2.181e-05	0.00252
x2 = 2.018e-05, x1 = 2.397e-05	0.00262
x2 = 2.018e-05, x1 = 2.595e-05	0.0027
x2 = 2.018e-05, x1 = 3.009e-05	0.00285
x2 = 2.018e-05, x1 = 3.406e-05	0.00306
x2 = 2.018e-05, x1 = 3.802e-05	0.00323
x2 = 2.018e-05, x1 = 4.181e-05	0.00336
x2 = 2.018e-05, x1 = 4.559e-05	0.0035
x2 = 2.018e-05, x1 = 4.92e-05	0.00362
x2 = 2.018e-05, x1 = 5.1e-05	0.00368
x2 = 2.018e-05, x1 = 6.001e-05	0.00392
x2 = 2.018e-05, x1 = 6.848e-05	0.00422
x2 = 2.018e-05, x1 = 7.658e-05	0.00445
x2 = 2.018e-05, x1 = 8.433e-05	0.00467
x2 = 2.018e-05, x1 = 9.19e-05	0.00486
x2 = 2.018e-05, x1 = 9.911e-05	0.00506
x2 = 2.018e-05, x1 = 0.000106	0.00523
x2 = 2.018e-05, x1 = 0.0001126	0.00538
x2 = 2.018e-05, x1 = 0.0001191	0.00553
x2 = 0.0002, x1 = 5.4e-07	0.000232
x2 = 0.0002, x1 = 9e-07	0.000298
x2 = 0.0002, x1 = 1.62e-06	0.00042
x2 = 0.0002, x1 = 2.16e-06	0.000524
x2 = 0.0002, x1 = 2.89e-06	0.000628
x2 = 0.0002, x1 = 3.79e-06	0.000685
x2 = 0.0002, x1 = 4.51e-06	0.000861
x2 = 0.0002, x1 = 5.59e-06	0.001036
x2 = 0.0002, x1 = 6.67e-06	0.00115
x2 = 0.0002, x1 = 7.75e-06	0.00127
x2 = 0.0002, x1 = 8.84e-06	0.001426
x2 = 0.0002, x1 = 9.92e-06	0.00157
x2 = 0.0002, x1 = 1.1e-05	0.00168
x2 = 0.0002, x1 = 1.316e-05	0.001913
x2 = 0.0002, x1 = 1.533e-05	0.00214
x2 = 0.0002, x1 = 1.731e-05	0.00228
x2 = 0.0002, x1 = 1.947e-05	0.00243
x2 = 0.0002, x1 = 2.146e-05	0.00253
x2 = 0.0002, x1 = 2.344e-05	0.00262
x2 = 0.0002, x1 = 2.56e-05	0.00272
x2 = 0.0002, x1 = 2.957e-05	0.00291
x2 = 0.0002, x1 = 3.336e-05	0.00307
x2 = 0.0002, x1 = 3.732e-05	0.00323
x2 = 0.0002, x1 = 4.111e-05	0.00337
x2 = 0.0002, x1 = 4.472e-05	0.0035
x2 = 0.0002, x1 = 4.832e-05	0.00363
x2 = 0.0002, x1 = 5.012e-05	0.0037
x2 = 0.0002, x1 = 5.878e-05	0.00399
